Assay results: ChEMBL document CHEMBL1201862, “PubChem BioAssay data set” (2004)
Active and inactive are the calls of the source.

Legend:
fMet-Leu-Phe receptor = biological target: T1, fMet-Leu-Phe receptor (Homo sapiens, UniProt P21462); test: FPR ligands, dose response (AID 519); format: functional
T1 sequence (P21462 whole entry): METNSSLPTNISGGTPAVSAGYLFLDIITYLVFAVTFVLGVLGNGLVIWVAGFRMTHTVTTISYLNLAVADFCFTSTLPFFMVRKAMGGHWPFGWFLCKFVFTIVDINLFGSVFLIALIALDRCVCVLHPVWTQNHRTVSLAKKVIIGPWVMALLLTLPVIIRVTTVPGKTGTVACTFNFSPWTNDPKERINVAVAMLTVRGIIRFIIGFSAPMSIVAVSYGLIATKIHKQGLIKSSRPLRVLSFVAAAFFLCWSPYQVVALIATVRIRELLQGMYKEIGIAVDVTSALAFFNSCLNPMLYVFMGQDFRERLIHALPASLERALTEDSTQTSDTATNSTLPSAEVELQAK

Prothrombin = Prothrombin (Homo sapiens, UniProt P00734); test: Thrombin 1536 HTS Dose Response Confirmation. [Related pubchem assays: 1046 (Thrombin 1536 HTS; hits were confirmed in this assay)]; format: functional
[1] = biological target: T2, Heat shock factor protein 1 (Mus musculus, UniProt P38532); test: inhibition of MG132-induced HSE-luciferase signal, confirmation, cell-based, NIH3T3, luminescence, dose retest (AID 2382); format: functional;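 further: NIH3T3 fibroblasts with HSF1-driven luciferase reporter stressed by proteasome inhibitor MG132; luminescence from HSF1-driven luciferase expression after 8 hours of MG132 stress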
T2 sequence (P38532 whole entry): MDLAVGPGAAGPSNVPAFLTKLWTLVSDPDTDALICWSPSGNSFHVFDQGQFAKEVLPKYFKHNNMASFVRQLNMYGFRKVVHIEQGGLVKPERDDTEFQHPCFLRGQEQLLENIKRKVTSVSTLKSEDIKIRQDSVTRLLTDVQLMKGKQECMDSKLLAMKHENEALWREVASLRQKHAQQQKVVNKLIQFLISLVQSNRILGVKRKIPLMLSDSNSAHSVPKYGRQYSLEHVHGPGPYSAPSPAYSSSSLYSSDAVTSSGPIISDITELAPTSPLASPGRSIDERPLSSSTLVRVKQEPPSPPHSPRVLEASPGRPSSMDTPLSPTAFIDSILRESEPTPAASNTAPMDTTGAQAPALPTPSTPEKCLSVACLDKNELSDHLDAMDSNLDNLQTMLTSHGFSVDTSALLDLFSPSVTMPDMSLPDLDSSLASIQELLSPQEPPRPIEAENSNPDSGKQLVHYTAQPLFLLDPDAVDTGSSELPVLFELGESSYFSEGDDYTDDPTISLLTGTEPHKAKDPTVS

Coagulation factor XII = biological target: T3, Coagulation factor XII (Homo sapiens, UniProt P00748); format: functional;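 further: activated factor XIIa alpha cleaving a fluorogenic AMC peptide substrate; inhibitor potency from loss of enzyme activity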
T3 sequence (P00748 whole entry): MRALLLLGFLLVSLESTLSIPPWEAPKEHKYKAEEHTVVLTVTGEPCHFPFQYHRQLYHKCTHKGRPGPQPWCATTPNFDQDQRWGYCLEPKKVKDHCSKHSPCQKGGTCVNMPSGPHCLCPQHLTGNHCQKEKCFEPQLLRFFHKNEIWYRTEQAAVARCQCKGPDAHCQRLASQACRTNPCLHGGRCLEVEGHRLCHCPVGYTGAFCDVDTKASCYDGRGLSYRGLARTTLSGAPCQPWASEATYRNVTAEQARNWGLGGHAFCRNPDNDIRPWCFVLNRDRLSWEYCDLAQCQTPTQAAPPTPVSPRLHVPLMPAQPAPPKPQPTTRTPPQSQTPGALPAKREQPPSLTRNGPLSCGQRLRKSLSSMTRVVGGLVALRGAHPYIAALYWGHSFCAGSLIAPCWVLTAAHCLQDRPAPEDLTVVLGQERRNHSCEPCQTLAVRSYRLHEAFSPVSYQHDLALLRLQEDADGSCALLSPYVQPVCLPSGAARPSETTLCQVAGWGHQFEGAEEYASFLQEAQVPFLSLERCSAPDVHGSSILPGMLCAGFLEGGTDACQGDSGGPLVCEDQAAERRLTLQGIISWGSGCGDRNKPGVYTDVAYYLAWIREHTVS

[2] = inhibitors of SNCA 5'UTR-driven reporter translation, confirmation, H4 neuroglioma cells, luminescence (AID 1988); format: functional, cell-based
[3] = Luminescence Cell-Based Dose Response HTS to Identify Inhibitors of 5'UTR Stem-Loop Driven Prion Protein mRNA Translation in H4 Neuroglioblastoma Cells. [Related pubchem assays: 1827 (Project Summary), 1813 (Primary HTS)]; format: functional
[4] = cytotoxicity in HEK-293T cells, dose response, cytotoxicity control for TCR NF-kB inhibitor project, luminescence, T-cell screen hits (AID 489026); format: functional, cell-based;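 further: cells exposed to compound about 14 hours before the viability readout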
BJ [5] = test: cells; format: functional, cell-based; settings: Homo sapiens
BJ [6] = test: cytotoxicity toward BJ-TERT-LT-ST fibroblasts, dose response, cell-based, RAS-independent, luminescence (AID 1935); format: functional; settings: Homo sapiens;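 further: BJ fibroblasts immortalized with TERT plus LT and ST oncogenes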
BJ [7] = test: cytotoxicity toward BJ-TERT fibroblasts, dose response, cell-based, RAS-independent, luminescence (AID 1933); format: functional; settings: Homo sapiens
[8] = inhibitors of firefly luciferase expression or activity, dose response, H4 neuroglioma cells, luminescence (AID 1990); format: functional, cell-based
[9] = cytotoxicity toward DRD oncogenic fibroblasts, dose response, cell-based, non-viral oncogenic, luminescence (AID 1934); format: functional; settings: Homo sapiens
P388 = test: cells; format: functional; settings: Mus musculus
SN12K1 = test: cells; format: functional; settings: Homo sapiens
P388/ADR = test: cells; format: functional; settings: Mus musculus
[10] = cytotoxicity in OVCAR8 ovarian cancer cells, dose response, PAX8 project, cell-based, plate reader, dry powder samples (AID 743197); format: functional; settings: OVCAR-8
Paired box protein Pax-8 = Paired box protein Pax-8 (Homo sapiens, UniProt Q06710); test: inhibitors of PAX8-driven TPO luciferase reporter, dose response, RMG-I cells, cherry-pick (AID 687027); format: functional, cell-based;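 further: luciferase reporter driven by Pax8 target thyroperoxidase promoter measured by SteadyGlo luminescence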
[11] = NIH:OVCAR-3 ovarian cancer cell cytotoxicity, dose response, PAX8 inhibitor project, plate reader, dry powder samples (AID 743044); format: functional, cell-based
Cytochrome P450 3A4 = Cytochrome P450 3A4 (Homo sapiens, UniProt P08684); settings: Potency;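 further: confirmatory qHTS run detecting inhibitors and substrates of CYP3A4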
[12] = biological target: G-protein coupled receptor 55 (Homo sapiens, UniProt Q9Y2T6); test: GPR55 antagonists blocking LPI-driven arrestin recruitment, primary screen, imaging, U2OS, beta-arrestin-GFP, LPI agonist (AID 2013); format: functional;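 further: antagonist potency measured as reduced agonist-driven arrestin aggregation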
[13] = Luminescence Cell-Based Dose Retest to Confirm Inhibitors of Cancer Stem Cells. [Related pubchem assays (depositor defined):AID2717, AID2721]; format: functional; settings: Homo sapiens
Fatty acid synthase [14] = biological target: T4, Fatty acid synthase (Homo sapiens, UniProt P49327); test: FAS thioesterase domain inhibitors, dose response, biochemical, endpoint fluorescence intensity, uHTS hits (AID 624327); format: functional;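 further: fluorescence from hydrolysis of an O-methyl fluorescein acyl ester substrate by the enzyme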
Nonstructural protein 1 = Nonstructural protein 1 (Influenza A virus, UniProt Q194T2); format: functional, Influenza A virus (A/California/07/2009(H1N1))
Fatty acid synthase [15] = biological target: T4, Fatty acid synthase; test: FAS thioesterase domain inhibitors, dose response, biochemical, kinetic fluorescence intensity (AID 624326); format: functional;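 further: rate of fluorescence rise from hydrolysis of a fluorogenic O-methyl fluorescein ester substrate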
[16] = biological target: Induced myeloid leukemia cell differentiation protein Mcl-1 (Homo sapiens, UniProt Q07820); format: functional
Induced myeloid leukemia cell differentiation protein Mcl-1, sequence (Q07820 whole entry): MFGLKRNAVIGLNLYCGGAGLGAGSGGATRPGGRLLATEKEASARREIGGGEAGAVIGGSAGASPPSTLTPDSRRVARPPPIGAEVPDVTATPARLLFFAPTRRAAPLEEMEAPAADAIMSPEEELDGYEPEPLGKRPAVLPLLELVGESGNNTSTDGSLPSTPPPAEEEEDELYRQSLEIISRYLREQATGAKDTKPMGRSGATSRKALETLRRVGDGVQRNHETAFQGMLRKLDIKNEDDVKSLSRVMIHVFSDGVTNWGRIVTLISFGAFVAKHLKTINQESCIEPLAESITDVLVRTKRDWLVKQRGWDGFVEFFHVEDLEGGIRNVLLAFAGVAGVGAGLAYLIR

T4 sequence (P49327 whole entry, the tested form may be a part): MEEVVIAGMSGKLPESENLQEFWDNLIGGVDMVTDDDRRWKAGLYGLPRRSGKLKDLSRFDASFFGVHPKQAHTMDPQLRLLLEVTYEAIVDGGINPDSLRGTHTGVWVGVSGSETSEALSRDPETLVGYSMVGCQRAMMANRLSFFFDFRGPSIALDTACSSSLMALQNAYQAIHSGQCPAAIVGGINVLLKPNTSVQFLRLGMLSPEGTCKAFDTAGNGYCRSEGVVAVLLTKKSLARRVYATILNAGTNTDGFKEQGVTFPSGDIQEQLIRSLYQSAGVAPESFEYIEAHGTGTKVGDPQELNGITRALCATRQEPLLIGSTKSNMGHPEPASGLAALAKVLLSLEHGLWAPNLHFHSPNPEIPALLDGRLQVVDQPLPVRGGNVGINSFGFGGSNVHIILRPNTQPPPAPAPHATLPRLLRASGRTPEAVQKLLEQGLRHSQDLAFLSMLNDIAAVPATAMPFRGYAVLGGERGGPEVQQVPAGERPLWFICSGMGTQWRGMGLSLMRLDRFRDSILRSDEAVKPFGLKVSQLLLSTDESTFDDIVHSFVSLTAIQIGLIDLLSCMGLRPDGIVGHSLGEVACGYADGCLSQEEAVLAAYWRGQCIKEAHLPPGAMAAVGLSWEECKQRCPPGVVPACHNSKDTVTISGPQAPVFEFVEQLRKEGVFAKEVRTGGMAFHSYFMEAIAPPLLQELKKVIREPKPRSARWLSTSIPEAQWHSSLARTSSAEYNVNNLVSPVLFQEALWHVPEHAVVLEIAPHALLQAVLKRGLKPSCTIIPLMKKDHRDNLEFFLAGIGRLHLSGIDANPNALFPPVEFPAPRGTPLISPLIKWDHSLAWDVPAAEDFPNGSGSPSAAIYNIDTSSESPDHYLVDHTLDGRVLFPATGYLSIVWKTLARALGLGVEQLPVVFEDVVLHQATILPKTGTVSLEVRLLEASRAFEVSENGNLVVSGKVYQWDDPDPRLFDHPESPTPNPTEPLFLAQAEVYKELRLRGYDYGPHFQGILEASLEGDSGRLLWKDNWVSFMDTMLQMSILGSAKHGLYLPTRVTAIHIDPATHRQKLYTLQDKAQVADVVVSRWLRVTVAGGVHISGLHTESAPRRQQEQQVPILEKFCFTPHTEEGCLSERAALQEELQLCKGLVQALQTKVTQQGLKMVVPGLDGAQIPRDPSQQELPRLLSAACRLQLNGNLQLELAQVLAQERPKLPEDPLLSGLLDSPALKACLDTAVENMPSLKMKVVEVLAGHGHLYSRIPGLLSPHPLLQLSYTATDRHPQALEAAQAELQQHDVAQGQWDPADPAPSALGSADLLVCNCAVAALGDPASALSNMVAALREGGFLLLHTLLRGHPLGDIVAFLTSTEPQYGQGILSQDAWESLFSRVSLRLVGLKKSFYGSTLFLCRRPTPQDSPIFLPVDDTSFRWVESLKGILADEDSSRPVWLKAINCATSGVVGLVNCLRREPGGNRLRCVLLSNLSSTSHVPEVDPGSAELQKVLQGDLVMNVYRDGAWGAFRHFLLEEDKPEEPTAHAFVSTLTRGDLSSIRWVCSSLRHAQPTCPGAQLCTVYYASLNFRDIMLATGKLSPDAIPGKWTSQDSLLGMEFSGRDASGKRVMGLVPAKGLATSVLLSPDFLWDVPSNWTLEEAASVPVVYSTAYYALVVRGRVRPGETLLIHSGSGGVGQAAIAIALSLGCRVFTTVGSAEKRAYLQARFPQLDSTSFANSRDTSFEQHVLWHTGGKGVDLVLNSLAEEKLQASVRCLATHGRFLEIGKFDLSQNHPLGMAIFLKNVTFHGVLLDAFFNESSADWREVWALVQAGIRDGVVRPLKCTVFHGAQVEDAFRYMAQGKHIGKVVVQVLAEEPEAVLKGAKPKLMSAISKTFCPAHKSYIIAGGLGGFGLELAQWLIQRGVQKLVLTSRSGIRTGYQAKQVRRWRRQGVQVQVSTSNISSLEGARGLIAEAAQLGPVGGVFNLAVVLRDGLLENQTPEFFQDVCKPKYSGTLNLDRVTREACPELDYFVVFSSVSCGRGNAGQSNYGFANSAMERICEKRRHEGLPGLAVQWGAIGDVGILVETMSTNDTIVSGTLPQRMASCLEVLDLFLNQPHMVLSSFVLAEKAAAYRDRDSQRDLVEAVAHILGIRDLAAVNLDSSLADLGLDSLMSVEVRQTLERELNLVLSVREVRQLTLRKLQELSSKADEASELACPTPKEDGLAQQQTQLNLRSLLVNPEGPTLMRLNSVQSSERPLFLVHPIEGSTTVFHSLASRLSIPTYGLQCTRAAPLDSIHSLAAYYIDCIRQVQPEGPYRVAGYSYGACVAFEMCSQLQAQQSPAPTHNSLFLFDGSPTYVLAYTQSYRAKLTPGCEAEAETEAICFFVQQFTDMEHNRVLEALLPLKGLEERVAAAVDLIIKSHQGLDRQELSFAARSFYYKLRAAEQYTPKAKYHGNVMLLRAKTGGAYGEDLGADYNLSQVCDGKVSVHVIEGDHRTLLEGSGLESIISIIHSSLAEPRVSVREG
Paired box protein Pax-8, sequence (Q06710 whole entry): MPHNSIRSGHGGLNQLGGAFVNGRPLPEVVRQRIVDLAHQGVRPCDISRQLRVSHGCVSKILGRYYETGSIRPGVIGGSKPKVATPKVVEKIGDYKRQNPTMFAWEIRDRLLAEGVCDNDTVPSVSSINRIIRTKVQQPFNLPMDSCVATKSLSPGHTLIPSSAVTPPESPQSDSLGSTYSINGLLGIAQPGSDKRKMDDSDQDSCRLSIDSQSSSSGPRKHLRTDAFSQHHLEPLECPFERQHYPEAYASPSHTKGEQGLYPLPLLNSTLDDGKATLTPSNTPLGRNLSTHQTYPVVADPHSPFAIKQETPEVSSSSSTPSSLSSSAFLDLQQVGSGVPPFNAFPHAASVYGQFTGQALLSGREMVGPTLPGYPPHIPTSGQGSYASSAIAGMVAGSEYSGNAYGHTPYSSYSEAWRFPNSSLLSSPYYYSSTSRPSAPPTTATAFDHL
Nonstructural protein 1, sequence (Q194T2 whole entry, the tested form may be a part): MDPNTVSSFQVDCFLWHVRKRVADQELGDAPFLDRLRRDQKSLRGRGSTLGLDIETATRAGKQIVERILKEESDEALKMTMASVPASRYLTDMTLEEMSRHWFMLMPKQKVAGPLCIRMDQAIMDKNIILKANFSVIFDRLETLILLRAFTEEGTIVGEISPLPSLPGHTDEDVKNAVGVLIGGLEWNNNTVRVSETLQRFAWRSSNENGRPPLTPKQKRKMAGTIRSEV
Cytochrome P450 3A4, sequence (P08684 whole entry): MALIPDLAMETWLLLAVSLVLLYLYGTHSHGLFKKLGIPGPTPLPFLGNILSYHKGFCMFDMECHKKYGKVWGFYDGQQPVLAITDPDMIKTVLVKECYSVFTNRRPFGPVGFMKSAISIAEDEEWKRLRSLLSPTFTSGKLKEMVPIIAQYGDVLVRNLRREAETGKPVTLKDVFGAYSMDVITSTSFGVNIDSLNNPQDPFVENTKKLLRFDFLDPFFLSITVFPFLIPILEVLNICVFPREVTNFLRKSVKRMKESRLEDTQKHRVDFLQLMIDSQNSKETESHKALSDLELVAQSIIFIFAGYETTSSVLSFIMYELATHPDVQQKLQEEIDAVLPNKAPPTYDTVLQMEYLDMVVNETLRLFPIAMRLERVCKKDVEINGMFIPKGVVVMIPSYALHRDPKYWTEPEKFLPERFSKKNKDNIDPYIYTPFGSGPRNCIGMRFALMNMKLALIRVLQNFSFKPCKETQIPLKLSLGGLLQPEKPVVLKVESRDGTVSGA
G-protein coupled receptor 55, sequence (Q9Y2T6 whole entry): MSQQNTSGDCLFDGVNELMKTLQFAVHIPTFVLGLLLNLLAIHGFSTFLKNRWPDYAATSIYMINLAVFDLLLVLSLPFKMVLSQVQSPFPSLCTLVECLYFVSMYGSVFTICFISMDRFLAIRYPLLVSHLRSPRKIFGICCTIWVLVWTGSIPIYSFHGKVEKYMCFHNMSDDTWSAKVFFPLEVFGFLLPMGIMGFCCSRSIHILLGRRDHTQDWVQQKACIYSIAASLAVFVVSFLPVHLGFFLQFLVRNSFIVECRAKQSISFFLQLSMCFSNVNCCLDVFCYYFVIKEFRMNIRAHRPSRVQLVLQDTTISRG

O=C(C1=C(O)C(=O)N(CCCN2CCOCC2)C1c1ccccn1)c1cc2ccccc2o1 (stereo not drawn)
Ki (fMet-Leu-Phe receptor): 60.7 µM (inactive)

CC(=O)n1nc(-c2ccc(Cl)cc2)nc1NCc1ccco1
IC50 (Prothrombin): 1.44 µM (active)

Cc1nn2c(CN(C(=O)CN3CCOCC3)c3ccccc3)nnc2c2ccccc12
EC50 [1]: > 195 µM (not active) | IC50 (Coagulation factor XII): > 50 µM (inactive)

Oc1cc(-c2ccccc2)nc2cc(Cl)ccc12
EC50 [2]: 0.209 µM (active) | EC50 [3]: 2.36 µM (active) | IC50 [4]: > 80 µM (inactive) | EC50 (BJ [5]): 19.8 µM (active) | EC50 (BJ [6]): 1.42 µM (inconclusive) | EC50 (BJ [7]): 1.04 µM (active) | EC50 [8]: 2.42 µM (inconclusive) | EC50 [9]: 0.906 µM (inconclusive)

CN(N=O)C(=O)N[C@H]1C(O)O[C@H](CO)[C@@H](O)[C@@H]1O (stereo partly drawn)
GI50 (P388): 451 µM (inactive) | GI50 (SN12K1): 532 µM (inactive) | GI50 (P388/ADR): 484 µM (inactive)

COC(=O)[C@H](C(C)C)n1c(C)c(C(C)=O)c(C(C)=O)c1C
Ki (fMet-Leu-Phe receptor): > 66.7 µM (inactive)

C#CCNC(=O)CCC(N)C(=O)O (stereo not drawn)
GI50 (P388): > 100 µM (inactive) | GI50 (SN12K1): > 100 µM (inactive) | GI50 (P388/ADR): > 100 µM (inactive)

C[C@H](N)C(=O)N[C@@H]1[C@H]2C(=C(O)C[C@@H](O)[C@@H]2O)C(=O)O[C@@H]1C
GI50 (P388): > 53.2 µM (inactive) | GI50 (SN12K1): > 100 µM (inactive) | GI50 (P388/ADR): > 73.3 µM (inactive)

COC1=C(C)C(=O)C2=C(C1=O)[C@@H]1[C@@H]3Cc4c(OC(=O)CO)c(C)c(OC)c(O)c4[C@H](CNC(=O)C(C)=O)N3[C@@H](C#N)[C@H](C2)N1C
GI50 (P388): < 0.01 µM (active) | GI50 (SN12K1): 0.0358 µM (active) | GI50 (P388/ADR): 0.125 µM (active)

Cc1ccc(S(=O)(=O)Nc2ccc3c(c2)C(=O)N([C@@H](C)CO)C[C@@H](C)[C@H](CN(C)Cc2ccc(C(F)(F)F)cc2)OCCCC[C@H](C)O3)cc1
AC50 [10]: > 70 µM (inactive) | AC50 (Paired box protein Pax-8): 6.38 µM (active) | AC50 [11]: 4.07 µM (active)

COc1ccc(-c2ccc3c(c2)[C@@H]2[C@@H](CCN2S(=O)(=O)c2ccc(OC)cc2)[C@@H](CO)N3C)cc1
AC50 [10]: 51.2 µM (active) | AC50 (Paired box protein Pax-8): 12.3 µM (active) | AC50 [11]: 31.2 µM (active)

CC1[C@@]2(O[C@@H]3C=C4C5CCC6Cc7nc8c(nc7C[C@@]6(C)C5C[C@H](O)[C@@]4(C)[C@]13O)CC1CCc3c(cc4c5c3C(O)C[C@H]5[C@@H](C)C3(O4)OC(C)(C)CC3O)[C@]1(C)C8)O[C@@](C)(CO)C[C@@H]2O (stereo partly drawn)
GI50 (P388): 0.103 µM (active) | GI50 (SN12K1): 0.0404 µM (active) | GI50 (P388/ADR): 2.69 µM (inactive)

CCN(CC)c1ccc2c(C)cc(=O)oc2c1
AC50 (Cytochrome P450 3A4): 20 µM (inconclusive)

COc1cc(/C=N/NC(=O)c2cc(C34CC5CC(CC(C5)C3)C4)[nH]n2)ccc1O
IC50 [12]: 2.69 µM (active) | AC50 [13]: 0.699 µM (active)

Cc1cc(-c2ccccc2)nc(N/N=C/c2ccc([N+](=O)[O-])cc2)n1
IC50 (Fatty acid synthase [14]): 8.37 µM (active) | IC50 (Nonstructural protein 1): > 100 µM (active) | IC50 (Fatty acid synthase [15]): 6.41 µM (active)

COc1cc(/C=N/Nc2n[nH]c3c4ccccc4nc-3n2)ccc1O
IC50 [16]: 3.9 µM (active)

Nc1ccn(C2OC(CO)C(O)C2O)c(=O)c1 (stereo not drawn)
GI50 (P388): 57 µM (inactive) | GI50 (SN12K1): 344 µM (inactive)
